Assay results as given in article PMC12401824, “Studies on the impact of modifications at the Gln-Trp site in RM2-based GRPR ligands” (EJNMMI Research, 2025).
Where two headings read alike, the source gives them in different places. Starred links: 1 amine or outer side, 2 acyl side, 3 side chain; linkers in the order of their positions; H or OH if unused. Non-standard residues stand in square brackets, D forms with d. Residues, ends and D or L forms follow the SMILES beside them. *: point of attachment. DOTA = O=C(O)CN1CCN(CC(=O)O)CCN(CC(=O)*)CCN(CC(=O)O)CC1; Sta = CC(C)C[C@H](N)[C@@H](O)CC(=O)O; Bta = N[C@@H](Cc1csc2ccccc12)C(=O)O; X1 = O=C(CN1CCC(N[*:1])CC1)[*:2]; hSer = N[C@@H](CCO)C(=O)O

Legend:
PC-3 tumor xenograft = test: Biodistribution in PC-3 tumor-bearing CB17-SCID mice; type: in vivo; details: ^68Ga-labeled; 1 h p.i.; n = 4
Procedure: (§1) To establish tumor xenografts, PC-3 cells (5.0 × 10^6 cells per 200 µL) were suspended in a 1/1 mixture (v/v) of Dulbecco’s modified eagle's medium/Ham’s F-12 with Glutamax-I (v/v = 1/1) and Cultrex® Basement Membrane Matrix Type 3 (Trevigen Inc., Gaithersburg, MD, USA) and inoculated subcutaneously onto the right shoulder of CB17-SCID mice (Charles River Laboratories International Inc., Sulzfeld, Germany). Mice (n = 4) were used for experiments when tumor volume has reached 125–500 mm^3 (2–3 weeks after inoculation).
(§2) Biodistribution. […] (n = 4), respectively. Selected organs were removed, weighted and measured in a γ-counter.

[1] = as above; type: in vivo; details: mouse, 100 pmol, ^68Ga-labeled, 1 h p.i., n = 4; for tissue to tissue ratio at 1 h: CB17-SCID, iv, total radioactivity; for tissue uptake at 1 h: intravenous
Procedure: as §1, §2

[2] = tumor and blood, read-out: Tumor-to-Blood ratio
[3] = tumor and bone, read-out: Tumor-to-Bone ratio
[4] = tumor and heart, read-out: Tumor-to-Heart ratio
[5] = tumor and intestine, read-out: Tumor-to-Intestine ratio
[6] = tumor and kidney, read-out: Tumor-to-Kidney ratio
[7] = tumor and liver, read-out: Tumor-to-Liver ratio
[8] = tumor and lung, read-out: Tumor-to-Lung ratio
[9] = tumor and muscle, read-out: Tumor-to-Muscle ratio
[10] = tumor and pancreas, read-out: Tumor-to-Pancreas ratio
[11] = tumor and spleen, read-out: Tumor-to-Spleen ratio
[12] = tumor and stomach, read-out: Tumor-to-Stomach ratio
[13] = adrenal, read-out: Uptake in Adrenal
[14] = blood, read-out: Uptake in Blood
[15] = heart, read-out: Uptake in Heart
[16] = intestine, read-out: Uptake in Intestine
[17] = kidney, read-out: Uptake in Kidney
[18] = liver, read-out: Uptake in Liver
[19] = muscle, read-out: Uptake in Muscle
[20] = pancreas, read-out: Uptake in Pancreas
[21] = spleen, read-out: Uptake in Spleen
[22] = stomach, read-out: Uptake in Stomach
[23] = tumor, read-out: Uptake in Tumor

Row | Tumor-to-Adrenal ratio (PC-3 tumor xenograft) | tissue to tissue ratio at 1 h [1, 2] | tissue to tissue ratio at 1 h [1, 3] | tissue to tissue ratio at 1 h [1, 4] | tissue to tissue ratio at 1 h [1, 5] | tissue to tissue ratio at 1 h [1, 6] | tissue to tissue ratio at 1 h [1, 7] | tissue to tissue ratio at 1 h [1, 8] | tissue to tissue ratio at 1 h [1, 9] | tissue to tissue ratio at 1 h [1, 10] | tissue to tissue ratio at 1 h [1, 11] | tissue to tissue ratio at 1 h [1, 12] | tissue uptake at 1 h [1, 13] [%ID/g] | tissue uptake at 1 h [1, 14] [%ID/g] | tissue uptake at 1 h ([1]; bone, read-out: Uptake in Bone) [%ID/g] | tissue uptake at 1 h [1, 15] [%ID/g] | tissue uptake at 1 h [1, 16] [%ID/g] | tissue uptake at 1 h [1, 17] [%ID/g] | tissue uptake at 1 h [1, 18] [%ID/g] | tissue uptake at 1 h ([1]; lung, read-out: Uptake in Lung) [%ID/g] | Structure (SMILES) | other results
1 | 13.3 ± 17.2 | 7.6 ± 2.6 | 29.5 ± 8.2 | 19.8 ± 5 | 12.2 ± 4.5 | 3.3 ± 0.6 | 10.7 ± 2.3 | 8.8 ± 3 | 50.6 ± 19.4 | 1.9 ± 1.3 | 18.7 ± 6.9 | 7.1 ± 0.7 | 1.95 ± 1.3 | 1.07 ± 0.27 | 0.3 ± 0.15 | 0.4 ± 0.1 | 0.66 ± 0.14 | 2.33 ± 0.25 | 0.73 ± 0.17 | 0.92 ± 0.22 | CC(C)C[C@H](NC(=O)C[C@H](O)[C@H](CC(C)C)NC(=O)[C@H](Cc1c[nH]cn1)NC(=O)CNC(=O)[C@@H](NC(=O)[C@H](C)NC(=O)[C@H](Cc1csc2ccccc12)NC(=O)[C@H](CCC(N)=O)NC(=O)[C@@H](Cc1ccccc1)NC(=O)CN1CCC(NC(=O)CN2CCN(CC(=O)O)CCN(CC(=O)O)CCN(CC(=O)O)CC2)CC1)C(C)C)C(N)=O [[^68Ga]Ga-[Bta^8]RM2, metal not drawn] ({DOTA}-[X1][dF]Q[Bta]AVGH[Sta]L-NH2) | tissue uptake at 1 h [1, 19]: 0.19 ± 0.11 %ID/g; tissue uptake at 1 h [1, 20]: < 8 %ID/g; tissue uptake at 1 h [1, 21]: 0.46 ± 0.16 %ID/g; tissue uptake at 1 h [1, 22]: 1.07 ± 0.14 %ID/g; tissue uptake at 1 h [1, 23]: ~7.5 %ID/g
2 | 1.4 ± 1.1 | 1.9 ± 0.1 | 7.8 ± 0.7 | 6 ± 0.9 | 5 ± 0.3 | 2.2 ± 0.2 | 5.1 ± 0.5 | 3.3 ± 0.6 | 22.8 ± 3.4 | 0.9 ± 0.1 | 5 ± 0.7 | 4.1 ± 0.3 | 2.47 ± 0.3 | 3.92 ± 0.07 | 0.98 ± 0.12 | 1.29 ± 0.14 | 1.52 ± 0.1 | 3.51 ± 0.2 | 1.49 ± 0.06 | 2.33 ± 0.28 | CC(C)C[C@H](NC(=O)C[C@H](O)[C@H](CC(C)C)NC(=O)[C@H](Cc1c[nH]cn1)NC(=O)CNC(=O)[C@@H](NC(=O)[C@H](C)NC(=O)[C@H](Cc1c[nH]c2ccccc12)NC(=O)[C@H](CCO)NC(=O)[C@@H](Cc1ccccc1)NC(=O)CN1CCC(NC(=O)CN2CCN(CC(=O)O)CCN(CC(=O)O)CCN(CC(=O)O)CC2)CC1)C(C)C)C(N)=O [[^68Ga]Ga-[Hse^7]RM2, metal not drawn] ({DOTA}-[X1][dF][hSer]WAVGH[Sta]L-NH2) | tissue uptake at 1 h [1, 19]: 0.34 ± 0.04 %ID/g; tissue uptake at 1 h [1, 20]: < 8 %ID/g; tissue uptake at 1 h [1, 21]: 1.55 ± 0.15 %ID/g; tissue uptake at 1 h [1, 22]: 1.88 ± 0.06 %ID/g; tissue uptake at 1 h [1, 23]: ~7.5 %ID/g
